Reference: patent US20180214391A1, “USE OF CURCUMIN AND PHARMACEUTICALLY ACCEPTABLE SALT THEREOF” (TARGETPHARMA LABORATORIES (JIANDSU) CO., LTD., priority 2015, published 2018)

Assays:
Format in all cases: in vivo, C57BL/6 female mice
T241-VEGF tumors = assay: Antitumor animal model, subcutaneous T241-VEGF tumor: tumor volume and tumor weight; details: for final tumor volume compared with the control group / tumor weight compared with the control group: 0.1 ml/each, 14 days; for tumor weight compared with the control group: FIG. 1-B
Source text: At present, conventional antitumor drugs are accompanied with toxic side effects while taking effect. In this experiment, we evaluated the antitumor effect of curcumin, and examined the toxicity of the drug by observing changes in animals' body weights after treatment. Given that the chemotherapy drug treatment and course of chemotherapy are closely related to the incident rates of antitumor associated syndrome and its severity, positive control in this experiment used the most advanced antitumor antibodies in the world as a control. […]-VEGF is a tumor model with rapid tumor growth and obvious symptom of tumor associated syndrome. We feed C57BL/6 female mice (SPF grade, 6-8 weeks old, manufactured by Shanghai Silaike Experimental Animal Co., Ltd.) for 2-3 days. The day before subcutaneous inoculation, body hair in back and neck was shaved with a shaving device for the preparation of subcutaneous inoculation of tumor cells. The tumor cells […]-VEGF were collected and washed twice with PBS. After resuspended with PBS and counted, the cells were diluted to 1×10^7 cells/ml with PBS and placed on ice ready for inoculation. Mice were anesthetized with 7% chloral hydrate, 0.1 ml/each, intraperitoneal injection. After the mice were completely anesthetized, the mice were subcutaneously inoculated with tumor cells […]-VEGF, 1×10^6/each, with 1 ml medical disposable syringes in the back and neck. Inoculated mice were randomly allocated (8 in each group), weighed, grouped and administered for treatment. In this experiment, curcumin (manufactured by Sigma, cat. no. […]) was dissolved to 1 mol/L with DMSO and diluted to 2.5 mM, 5 mM and 10 mM with 20% Tween-80 (mixed with PBS) before administration. Detailed information and administration plan is as follows: Control: 20% Tween-80, 0.1 ml/each; The low-dose of curcumin group (Curcumin-2.5 mM): 2.5 mM curcumin, 0.1 ml/each, continuous administration for 14 days; The medium-dose of curcumin group (Curcumin-5 mM): 5 mM curcumin, 0.1 ml/each, continuous administration for 14 days; The high-dose of curcumin group (Curcumin-10 mM): 10 mM Curcumin, 0.1 ml/each, continuous administration for 14 days; Positive control group (PC: anti-VEGF humanized monoclonal antibody, produced by Jiangsu […] Pharmaceutical Co., Ltd.): 2 mg/ml, 0.1 ml/each, twice a week, administration for 4 times. Mice were weighed up every other day. Measuring the tumor volume with vernier caliper every other day after tumor grew in the body. In order to further verify the antitumor effect of each dose of curcumin and its effect on liver and spleen, we handled and dissected the animals in each group the day after administration, got tumors, livers, spleens and kidneys, then weighed up all the tissues and stored them respectively.

[1] = Body weight changes of T241-VEGF tumor-bearing mice after treatment (toxicity); details: low, medium and high dose of curcumin (2.5, 5, 10 mM, 0.1 ml/each, 14 days); consistent with normally fed animals
Source text: At present, conventional antitumor drugs are accompanied with toxic side effects while taking effect. In this experiment, we evaluated the antitumor effect of curcumin, and examined the toxicity of the drug by observing changes in animals' body weights after treatment. Given that the chemotherapy drug treatment and course of chemotherapy are closely related to the incident rates of antitumor associated syndrome and its severity, positive control in this experiment used the most advanced antitumor antibodies in the world as a control. T241-VEGF is a tumor model with rapid tumor growth and obvious symptom of tumor associated syndrome.
We feed C57BL/6 female mice (SPF grade, 6-8 weeks old, manufactured by Shanghai Silaike Experimental Animal Co., Ltd.) for 2-3 days. The day before subcutaneous inoculation, body hair in back and neck was shaved with a shaving device for the preparation of subcutaneous inoculation of tumor cells. The tumor cells T241-VEGF were collected and washed twice with PBS. After resuspended with PBS and counted, the cells were diluted to 1×10^7 cells/ml with PBS and placed on ice ready for inoculation. Mice were anesthetized with 7% chloral hydrate, 0.1 ml/each, intraperitoneal injection. […]

[2] = system: liver enlargement and splenomegaly caused by T241-VEGF tumor; assay: Liver and spleen coefficients of T241-VEGF tumor-bearing mice; details: vs tumor control group, p<0.05
Experimental: We feed C57BL/6 female mice (SPF grade, 6-8 weeks old, manufactured by Shanghai Silaike Experimental Animal Co., Ltd.) for 2-3 days. The day before subcutaneous inoculation, body hair in back and neck was shaved with a shaving device for the preparation of subcutaneous inoculation of tumor cells. The tumor cells T241-VEGF were collected and washed twice with PBS. After resuspended with PBS and counted, the cells were diluted to 1×10^7 cells/ml with PBS and placed on ice ready for inoculation. Mice were anesthetized with 7% chloral hydrate, 0.1 ml/each, intraperitoneal injection. After the mice were completely anesthetized, the mice were subcutaneously inoculated with tumor cells T241-VEGF, 1×10^6/each, with 1 ml medical disposable syringes in the back and neck. Inoculated mice were randomly allocated (8 in each group), weighed, grouped and administered for treatment. In this experiment, curcumin (manufactured by Sigma, cat. no. C1386-10G) was dissolved to 1 mol/L with DMSO and diluted to 2.5 mM, 5 mM and 10 mM with 20% Tween-80 (mixed with PBS) before administration. Detailed information and administration plan is as follows: Control: 20% Tween-80, 0.1 ml/each; The low-dose of curcumin group (Curcumin-2.5 mM): 2.5 mM curcumin, 0.1 ml/each, continuous administration for 14 days; The medium-dose of curcumin group (Curcumin-5 mM): 5 mM curcumin, 0.1 ml/each, continuous administration for 14 days; The high-dose of curcumin group (Curcumin-10 mM): 10 mM Curcumin, 0.1 ml/each, continuous administration for 14 days; Positive control group (PC: anti-VEGF humanized monoclonal antibody, produced by Jiangsu Simcere Pharmaceutical Co., Ltd.): 2 mg/ml, 0.1 ml/each, twice a week, administration for 4 times. Mice were weighed up every other day. Measuring the tumor volume with vernier caliper every other day after tumor grew in the body. […]

[3] = system: anemia symptoms induced by the T241-VEGF tumor animal model; assay: Blood analysis of anemia symptoms (RBC, HGB, HCT, PLT) in T241-VEGF tumor-bearing mice
Experimental: We feed C57BL/6 female mice (SPF grade, 6-8 weeks old, manufactured by Shanghai Silaike Experimental Animal Co., Ltd.) for 2-3 days. The day before subcutaneous inoculation, body hair in back and neck was shaved with a shaving device for the preparation of subcutaneous inoculation of tumor cells. The tumor cells T241-VEGF were collected and washed twice with PBS. After resuspended with PBS and counted, the cells were diluted to 1×10^7 cells/ml with PBS and placed on ice ready for inoculation. Mice were anesthetized with 7% chloral hydrate, 0.1 ml/each, intraperitoneal injection. After the mice were completely anesthetized, the mice were subcutaneously inoculated with tumor cells T241-VEGF, 1×10^6/each, with 1 ml medical disposable syringes in the back and neck. Inoculated mice were randomly allocated (8 in each group), weighed, grouped and administered for treatment. In this experiment, curcumin (manufactured by Sigma, cat. no. C1386-10G) was dissolved to 1 mol/L with DMSO and diluted to 2.5 mM, 5 mM and 10 mM with 20% Tween-80 (mixed with PBS) before administration. Detailed information and administration plan is as follows: Control: 20% Tween-80, 0.1 ml/each; The low-dose of curcumin group (Curcumin-2.5 mM): 2.5 mM curcumin, 0.1 ml/each, continuous administration for 14 days; The medium-dose of curcumin group (Curcumin-5 mM): 5 mM curcumin, 0.1 ml/each, continuous administration for 14 days; The high-dose of curcumin group (Curcumin-10 mM): 10 mM Curcumin, 0.1 ml/each, continuous administration for 14 days; Positive control group (PC: anti-VEGF humanized monoclonal antibody, produced by Jiangsu Simcere Pharmaceutical Co., Ltd.): 2 mg/ml, 0.1 ml/each, twice a week, administration for 4 times. Mice were weighed up every other day. Measuring the tumor volume with vernier caliper every other day after tumor grew in the body.
Handled the animals in each group the day after administration, weighed up, then collected blood (stored in 1.5 ml of EP tubes with 20 ul of 0.5M EDTA) after enucleation of the eyeballs and performed blood analysis. Blood samples were taken to evaluate the effect of curcumin on tumor associated syndrome—red blood cell (RBC), hemoglobin (HGB), hematocrit (HCT) and platelet count (PLT) in mice.

[4] = curcumin low, medium and high dose, positive control 2 mg/ml

COc1cc(/C=C/C(=O)CC(=O)/C=C/c2ccc(O)c(OC)c2)ccc1O [curcumin]
final tumor volume compared with the control group (T241-VEGF tumors; 2.5 mM curcumin): inhibited to a certain extent
tumor weight compared with the control group (T241-VEGF tumors; 5 mM curcumin): significantly different
final tumor volume compared with the control group (T241-VEGF tumors; 5 mM curcumin, p<0.01 or p<0.001): significantly different
tumor weight compared with the control group (T241-VEGF tumors; 10 mM curcumin): significantly different
final tumor volume compared with the control group (T241-VEGF tumors; 10 mM curcumin, p<0.01 or p<0.001): significantly different
growth of T241-VEGF tumors (T241-VEGF tumors; low, medium and high dose of curcumin (2.5, 5, 10 mM, 0.1 ml/each, 14 days), FIG. 1-A): can inhibit the growth
body weight [1]: not reduced
liver enlargement (liver coefficient) ([2]; 5 mM curcumin): significantly improve the liver enlargement
liver enlargement (liver coefficient) ([2]; 10 mM curcumin): significantly improve the liver enlargement
spleen enlargement (spleen coefficient) ([2]; 10 mM curcumin): significantly improve the spleen enlargement
platelet (PLT) compared with normal mice ([3]; curcumin at a dose of 10 mM): no statistical differences
anemia symptoms of tumor-bearing mice compared with control group ([3]; curcumin low, medium and high dose (2.5, 5, 10 mM), positive control 2 mg/ml, FIG. 3): improved remarkably
hematocrit (HCT) compared with normal mice [3, 4]: no statistical differences
hemoglobin (HGB) compared with normal mice [3, 4]: no statistical differences
red blood cell (RBC) compared with normal mice [3, 4]: no statistical differences
